Data on 6 compounds can be found in patent publication US9409966B2, “Glucagon-like peptide-1 derivatives and their pharmaceutical use” (priority 2007, dated 2016).

Each structure is given as a SMILES string. *1 amine or outer side, *2 acyl side, *3 side chain or, on linkers, in order; H or OH if unused. Where a SMILES comes first, the peptide text is derived from it. Side-chain parts run from the residue outwards. [ ]: non-standard residue; d: D form. The star is where a group is joined. C20 diacid = O=C(O)CCCCCCCCCCCCCCCCCCC(=O)*; C18 diacid = O=C(O)CCCCCCCCCCCCCCCCC(=O)*; C16 diacid = O=C(O)CCCCCCCCCCCCCCC(=O)*; γGlu = O=C(O)[C@H](CCC(=O)[*:2])N[*:1]; Desaminohistidyl = O=C(CCc1c[nH]cn1)*; Trx = NC[C@H]1CC[C@H](C(=O)O)CC1; NTA = O=C(O)CN(CC(=O)O)CC(=O)*; Dap = NC[C@H](N)C(=O)O; AEEA = NCCOCCOCC(=O)O; Aib = CC(C)(N)C(=O)O

Chain of human serum albumin (HSA) (P02768 25-609): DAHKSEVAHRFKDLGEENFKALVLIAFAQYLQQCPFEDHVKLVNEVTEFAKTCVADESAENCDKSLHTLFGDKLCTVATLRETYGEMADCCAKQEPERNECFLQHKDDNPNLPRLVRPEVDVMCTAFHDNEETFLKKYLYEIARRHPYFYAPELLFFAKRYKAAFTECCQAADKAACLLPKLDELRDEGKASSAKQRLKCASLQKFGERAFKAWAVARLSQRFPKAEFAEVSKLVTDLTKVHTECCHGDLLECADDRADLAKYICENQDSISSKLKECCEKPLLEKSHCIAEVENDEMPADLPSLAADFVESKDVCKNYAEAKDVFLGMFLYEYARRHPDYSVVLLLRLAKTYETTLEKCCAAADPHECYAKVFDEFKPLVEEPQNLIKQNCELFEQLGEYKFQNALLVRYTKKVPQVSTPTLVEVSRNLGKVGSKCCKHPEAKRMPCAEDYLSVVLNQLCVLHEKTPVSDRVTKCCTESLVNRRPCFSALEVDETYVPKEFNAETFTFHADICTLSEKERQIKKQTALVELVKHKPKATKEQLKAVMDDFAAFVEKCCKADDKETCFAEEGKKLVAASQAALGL

The target of the first experiment is T1, human GLP-1 receptor (Homo sapiens, UniProt P43220).
T1 construct: expressed in transfected cells; host or cells: BHK467-12A (tk-ts13) baby hamster kidney cells; purified plasma membranes
T1 sequence (P43220 24-463): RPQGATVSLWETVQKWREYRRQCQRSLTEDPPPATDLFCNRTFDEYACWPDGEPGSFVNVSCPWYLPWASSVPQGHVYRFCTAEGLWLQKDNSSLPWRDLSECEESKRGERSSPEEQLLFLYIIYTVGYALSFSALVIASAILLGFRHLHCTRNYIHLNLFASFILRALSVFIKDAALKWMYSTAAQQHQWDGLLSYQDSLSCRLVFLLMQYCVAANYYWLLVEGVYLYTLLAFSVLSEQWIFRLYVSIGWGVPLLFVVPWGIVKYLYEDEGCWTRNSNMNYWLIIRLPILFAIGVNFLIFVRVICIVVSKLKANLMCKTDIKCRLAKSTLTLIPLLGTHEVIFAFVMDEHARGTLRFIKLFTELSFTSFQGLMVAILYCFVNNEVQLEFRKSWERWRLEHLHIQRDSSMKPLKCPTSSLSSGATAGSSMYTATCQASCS
The experiment can be described thus: Stimulation of cAMP formation in a cell line expressing the cloned human GLP-1 receptor. The format is biochemical. To be noted: cAMP production, purified plasma membranes from BHK467-12A (tk-ts13), AlphaScreen cAMP Assay Kit; read-out: Potency [EC50/nM]. Background: cAMP levels reflect the balance of adenylyl cyclase and phosphodiesterase activity.
Experimental: A stable transfected cell line has been prepared at NN A/S, Denmark, and a high expressing clone was selected for screening. The cells were grown at 5% CO2 in DMEM, 5% FCS, 1% Pen/Strep (Penicillin/Streptomycin) and 0.5 mg/ml of the selection marker G418.
Cells at approximate 80% confluence were washed 2× with PBS (Phosphate Buffered Saline) and harvested with Versene (aqueous solution of the tetrasodium salt of ethylenediaminetetraacetic acid), centrifuged 5 min at 1000 rpm and the supernatant removed. The additional steps were all made on ice. […] Suspension in Buffer 2, homogenization and centrifugation was repeated once and the membranes were resuspended in Buffer 2 and ready for further analysis or stored at −80° C.
The functional receptor assay was carried out by measuring the peptide induced cAMP production by The AlphaScreen Technology. […] The capture of cAMP is achieved by using a specific antibody conjugated to acceptor beads. Formed cAMP was counted and measured at a AlphaFusion Microplate Analyzer. The EC50 values were calculated using the Graph-Pad Prisme software (version 5).
Take `CC[C@H](C)[C@H](NC(=O)[C@H](Cc1ccccc1)NC(=O)[C@H](CCC(=O)O)NC(=O)[C@H](CCCNC(=N)N)NC(=O)[C@H](C)NC(=O)[C@H](C)NC(=O)[C@H](CCC(N)=O)NC(=O)[C@H](CCC(=O)O)NC(=O)[C@H](CCC(=O)O)NC(=O)[C@H](CC(C)C)NC(=O)[C@H](Cc1ccc(O)cc1)NC(=O)[C@H](CO)NC(=O)[C@H](CO)NC(=O)[C@@H](NC(=O)[C@H](CC(=O)O)NC(=O)[C@H](CO)NC(=O)[C@@H](NC(=O)[C@H](Cc1ccccc1)NC(=O)[C@@H](NC(=O)CNC(=O)[C@H](CCC(=O)O)NC(=O)[C@H](C)NC(=O)CCc1c[nH]cn1)[C@@H](C)O)[C@@H](C)O)C(C)C)C(=O)N[C@@H](CCC(=O)O)C(=O)N[C@@H](Cc1c[nH]c2ccccc12)C(=O)N[C@@H](CC(C)C)C(=O)N[C@H](C(=O)N[C@@H](CCCNC(=N)N)C(=O)NCC(=O)N[C@@H](CCCNC(=N)N)C(=O)N[C@@H](CCCCNC(=O)COCCOCCNC(=O)COCCOCCNC(=O)CC[C@H](NC(=O)[C@H]1CC[C@H](CNC(=O)CCCCCCCCCCCCCCCCCCC(=O)O)CC1)C(=O)O)C(=O)O)C(C)C` [Example 10, N-epsilon37-[2-(2-{2-[2-(2-{2-[(S)-4-Carboxy-4-({trans-4-[(19-carboxy-nonadecanoylamino)methyl]cyclohexanecarbonyl}amino)butyrylamino]ethoxy}ethoxy)acetylamino]ethoxy}ethoxy)acetyl][DesaminoHis7,Glu22,Arg26,Glu30,Arg34,Lys37]GLP-1-(7-37)] (Desaminohistidyl-AEGTFTSDVSSYLEEQAAREFIEWLVRGRK([AEEA-AEEA-γGlu-Trx-C20 diacid])-OH): the EC50 came out at 0.66 nM.
On the same count and under the same terms, with `CCCCCCCCCCCCCCCCOCCOCCOCCOCCOCCOCCC(=O)NCCCC[C@H](NC(=O)[C@H](CCCNC(=N)N)NC(=O)CNC(=O)[C@H](CCCNC(=N)N)NC(=O)[C@@H](NC(=O)[C@H](CC(C)C)NC(=O)[C@H](Cc1c[nH]c2ccccc12)NC(=O)[C@H](C)NC(=O)[C@@H](NC(=O)[C@H](Cc1ccccc1)NC(=O)[C@H](CCC(=O)O)NC(=O)[C@H](CCCNC(=N)N)NC(=O)[C@H](C)NC(=O)[C@H](C)NC(=O)[C@H](CCC(N)=O)NC(=O)[C@H](CCC(=O)O)NC(=O)[C@H](CCC(=O)O)NC(=O)[C@H](CC(C)C)NC(=O)[C@H](Cc1ccc(O)cc1)NC(=O)[C@H](CO)NC(=O)[C@H](CO)NC(=O)[C@@H](NC(=O)[C@H](CC(=O)O)NC(=O)[C@H](CO)NC(=O)[C@@H](NC(=O)[C@H](Cc1ccccc1)NC(=O)[C@@H](NC(=O)CNC(=O)[C@H](CCC(=O)O)NC(=O)[C@H](C)NC(=O)CCc1c[nH]cn1)[C@@H](C)O)[C@@H](C)O)C(C)C)[C@@H](C)CC)C(C)C)C(N)=O` [Example 16, N-epsilon37 (3-((2-(2-(2-(2-(2-Hexadecyloxyethoxy)ethoxy)ethoxy)ethoxy)ethoxy))propionyl)[DesaminoHis7,Glu22,Arg26,Arg34,Lys37]GLP-1(7-37)-amide] the figure was 0.15 nM.

Another experiment concerns the target human serum albumin (HSA) (Homo sapiens, UniProt P02768). The experiment can be described thus: Albumin binding affinity, competition scintillation proximity assay (SPA).
Conditions: not given
Background: Scintillation proximity formats need no separation of bound from free tracer.
For the compound `CC[C@H](C)[C@H](NC(=O)[C@H](Cc1ccccc1)NC(=O)[C@H](CCC(=O)O)NC(=O)[C@H](CCCNC(=N)N)NC(=O)[C@H](C)NC(=O)[C@H](C)NC(=O)[C@H](CCC(N)=O)NC(=O)[C@H](CCC(=O)O)NC(=O)[C@H](CCC(=O)O)NC(=O)[C@H](CC(C)C)NC(=O)[C@H](Cc1ccc(O)cc1)NC(=O)[C@H](CO)NC(=O)[C@H](CO)NC(=O)[C@@H](NC(=O)[C@H](CC(=O)O)NC(=O)[C@H](CO)NC(=O)[C@@H](NC(=O)[C@H](Cc1ccccc1)NC(=O)[C@@H](NC(=O)CNC(=O)[C@H](CCC(=O)O)NC(=O)[C@H](C)NC(=O)CCc1c[nH]cn1)[C@@H](C)O)[C@@H](C)O)C(C)C)C(=O)N[C@@H](CCC(=O)O)C(=O)N[C@@H](Cc1c[nH]c2ccccc12)C(=O)N[C@@H](CC(C)C)C(=O)N[C@H](C(=O)N[C@@H](CCCNC(=N)N)C(=O)NCC(=O)N[C@@H](CCCCNC(=O)COCCOCCNC(=O)COCCOCCNC(=O)CC[C@H](NC(=O)CCCCCCCCCCCCCCC(=O)O)C(=O)O)C(=O)NCC(=O)N[C@@H](CCC(=O)O)C(=O)N[C@@H](CCCCN)C(=O)O)C(C)C` [Example 30, N-epsilon36-[2-(2-{2-[2-(2-{2-[(S)-4-carboxy-4-(15-carboxy-pentadecanoylamino)-butyrylamino]-ethoxy}-ethoxy)-acetylamino]-ethoxy}-ethoxy)-acetyl] [desaminoHis7, Glu22, Arg26, Glu30, Arg34, Lys36]GLP-1-(7-37)-Glu-Lys peptide] (Desaminohistidyl-AEGTFTSDVSSYLEEQAAREFIEWLVRGK([AEEA-AEEA-γGlu-C16 diacid])GEK-OH), the EC50 was greater than 2000 nM.
As to `CC[C@H](C)[C@H](NC(=O)[C@H](Cc1ccccc1)NC(=O)[C@H](CCC(=O)O)NC(=O)[C@H](CCCNC(=N)N)NC(=O)[C@H](C)NC(=O)[C@H](C)NC(=O)[C@H](CCC(N)=O)NC(=O)[C@H](CCC(=O)O)NC(=O)[C@H](CCC(=O)O)NC(=O)[C@H](CC(C)C)NC(=O)[C@H](Cc1ccc(O)cc1)NC(=O)[C@H](CO)NC(=O)[C@H](CO)NC(=O)[C@@H](NC(=O)[C@H](CC(=O)O)NC(=O)[C@H](CO)NC(=O)[C@@H](NC(=O)[C@H](Cc1ccccc1)NC(=O)[C@@H](NC(=O)CNC(=O)[C@H](CCC(=O)O)NC(=O)C(C)(C)NC(=O)[C@@H](N)Cc1c[nH]cn1)[C@@H](C)O)[C@@H](C)O)C(C)C)C(=O)N[C@@H](C)C(=O)N[C@@H](Cc1c[nH]c2ccccc12)C(=O)N[C@@H](CC(C)C)C(=O)N[C@H](C(=O)N[C@@H](CCCNC(=N)N)C(=O)NC(C)(C)C(=O)N[C@@H](CCCNC(=N)N)C(=O)N[C@@H](CCCCNC(=O)COCCOCCNC(=O)COCCOCCNC(=O)CC[C@H](NC(=O)CCCCCCCCCCCCCCCCC(=O)O)C(=O)O)C(=O)O)C(C)C` [Example 33, N-epsilon37-[2-(2-{2-[2-(2-{2-[(S)-4-carboxy-4-(17-carboxy-heptadecanoylamino)-butyrylamino]-ethoxy}-ethoxy)-acetylamino]-ethoxy}-ethoxy)-acetyl]-[Aib8,Glu22, Arg26,Arg34, Aib35, Lys37]GLP-1-(7-37)] (H-H[Aib]EGTFTSDVSSYLEEQAAREFIAWLVR[Aib]RK([AEEA-AEEA-γGlu-C18 diacid])-OH), the EC50 is 100 to 150 nM.
Still for that read-out and setting: to `CC[C@H](C)[C@H](NC(=O)[C@H](Cc1ccccc1)NC(=O)[C@H](CCC(=O)O)NC(=O)[C@H](CCCNC(=N)N)NC(=O)[C@@H](NC(=O)[C@H](C)NC(=O)[C@H](CCC(N)=O)NC(=O)[C@H](CCC(=O)O)NC(=O)[C@H](CCC(=O)O)NC(=O)[C@H](CC(C)C)NC(=O)[C@H](Cc1ccc(O)cc1)NC(=O)[C@H](CO)NC(=O)[C@H](CO)NC(=O)[C@@H](NC(=O)[C@H](CC(=O)O)NC(=O)[C@H](CO)NC(=O)[C@@H](NC(=O)[C@H](Cc1ccccc1)NC(=O)[C@@H](NC(=O)CNC(=O)[C@H](CCC(=O)O)NC(=O)C(C)(C)NC(=O)[C@@H](N)Cc1c[nH]cn1)[C@@H](C)O)[C@@H](C)O)C(C)C)C(C)C)C(=O)N[C@@H](C)C(=O)N[C@@H](CCCCNC(=O)COCCOCCNC(=O)COCCOCCNC(=O)CC[C@H](NC(=O)CCCCCCCCCCCCCCCCC(=O)O)C(=O)O)C(=O)N[C@@H](CC(C)C)C(=O)N[C@H](C(=O)N[C@@H](CCCCN)C(=O)N[C@@H](CCCCN)C(=O)N[C@@H](CCCCN)C(N)=O)C(C)C` [Example 36, N-epsilon31-[2-(2-{2-[2-(2-{2-[(S)-4-Carboxy-4-(17-carboxyheptadecanoylamino)butyrylamino]ethoxy}ethoxy)acetylamino]ethoxy}ethoxy)acetyl][Aib8,Glu22,Val25,Arg26,Lys31,Lys35,Lys36]GLP-1-(7-36) amide] (H-H[Aib]EGTFTSDVSSYLEEQAVREFIAK([AEEA-AEEA-γGlu-C18 diacid])LVKKK-NH2) belongs 400 to 800 nM.
`CC[C@H](C)[C@H](NC(=O)[C@H](Cc1ccccc1)NC(=O)[C@H](CCC(=O)O)NC(=O)[C@H](CCCNC(=N)N)NC(=O)[C@@H](NC(=O)[C@H](C)NC(=O)[C@H](CCC(N)=O)NC(=O)[C@H](CCC(=O)O)NC(=O)[C@H](CCC(=O)O)NC(=O)[C@H](CC(C)C)NC(=O)[C@H](Cc1ccc(O)cc1)NC(=O)[C@H](CO)NC(=O)[C@H](CO)NC(=O)[C@@H](NC(=O)[C@H](CC(=O)O)NC(=O)[C@H](CO)NC(=O)[C@@H](NC(=O)[C@H](Cc1ccccc1)NC(=O)[C@@H](NC(=O)CNC(=O)[C@H](CCC(=O)O)NC(=O)C(C)(C)NC(=O)[C@@H](N)Cc1c[nH]cn1)[C@@H](C)O)[C@@H](C)O)C(C)C)C(C)C)C(=O)N[C@@H](C)C(=O)N[C@@H](CCCCNC(=O)COCCOCCNC(=O)COCCOCCNC(=O)CC[C@H](NC(=O)CCCCCCCCCCCCCCCCC(=O)O)C(=O)O)C(=O)N[C@@H](CC(C)C)C(=O)N[C@H](C(=O)N[C@@H](CNC(=O)CN(CC(=O)O)CC(=O)O)C(N)=O)C(C)C` [Example 37, N-epsilon31-{2-(2-{2-[2-(2-{2-[4-Carboxy-4-(17-carboxy-heptadecanoylamino)butyrylamino]ethoxy}ethoxy)acetylamino]ethoxy}ethoxy)acetyl}-N-beta34-(2-(bis-carboxymethylamino)acetyl)[Aib8,Glu22,Val25,Arg26,Lys31, Dap34] GLP-1(7-34) amide] (H-H[Aib]EGTFTSDVSSYLEEQAVREFIAK([AEEA-AEEA-γGlu-C18 diacid])LV[Dap](NTA)-NH2) came in with an EC50 of 150 to 200 nM.
